Reference: ChEMBL document CHEMBL5543142, “Discovery of YFJ-36: Design, Synthesis, and Antibacterial Activities of Catechol-Conjugated β-Lactams against Gram-Negative Bacteria” (J Med Chem, 2024)

How the values were obtained:
Pseudomonas aeruginosa [1] = assay: Antibacterial activity against IMP-4 producing multidrug-resistant Pseudomonas aeruginosa clinical isolate 17-13 assessed as inhibition of bacterial growth incubated for 18 to 20 hrs by two fold serial dilution assay; type: functional; details: time 18-20 hrs
Klebsiella pneumoniae [2] = assay: Antibacterial activity against KPC-2 producing multidrug-resistant Klebsiella pneumoniae clinical isolate 15-2 assessed as inhibition of bacterial growth incubated for 18 to 20 hrs by two fold serial dilution assay; type: functional; details: time 18-20 hrs
Escherichia coli [3] = assay: Antibacterial activity against ESBL-producing multidrug-resistant Escherichia coli clinical isolate 14-4 assessed as inhibition of bacterial growth incubated for 18 to 20 hrs by two fold serial dilution assay; type: functional; details: time 18-20 hrs
Acinetobacter baumannii [4] = assay: Antibacterial activity against OXA-23 producing multidrug-resistant Acinetobacter baumannii clinical isolate 17-3 assessed as inhibition of bacterial growth incubated for 18 to 20 hrs by two fold serial dilution assay; type: functional; details: time 18-20 hrs
Klebsiella pneumoniae [5] = assay: Antibacterial activity against KPC-2 producing multidrug-resistant Klebsiella pneumoniae clinical isolate 15-1 assessed as inhibition of bacterial growth incubated for 18 to 20 hrs by two fold serial dilution assay; type: functional; details: time 18-20 hrs
Pseudomonas aeruginosa [6] = assay: Antibacterial activity against IMP-4 producing multidrug-resistant Pseudomonas aeruginosa clinical isolate 19-1 assessed as inhibition of bacterial growth incubated for 18 to 20 hrs by two fold serial dilution assay; type: functional; details: time 18-20 hrs
Escherichia coli [7] = assay: Antibacterial activity against ESBL-producing multidrug-resistant Escherichia coli clinical isolate 14-2 assessed as inhibition of bacterial growth incubated for 18 to 20 hrs by two fold serial dilution assay; type: functional; details: time 18-20 hrs
Acinetobacter baumannii [8] = assay: Antibacterial activity against OXA-23 producing multidrug-resistant Acinetobacter baumannii clinical isolate 17-5 assessed as inhibition of bacterial growth incubated for 18 to 20 hrs by two fold serial dilution assay; type: functional; details: time 18-20 hrs
Acinetobacter baumannii [9] = assay: Antibacterial activity against OXA-23 producing multidrug-resistant Acinetobacter baumannii clinical isolate 17-6 assessed as inhibition of bacterial growth incubated for 18 to 20 hrs by two fold serial dilution assay; type: functional; details: time 18-20 hrs
Escherichia coli [10] = assay: Antibacterial activity against Escherichia coli ATCC35218 assessed as inhibition of bacterial growth incubated for 18 to 20 hrs by two fold serial dilution assay; type: functional; details: time 18-20 hrs
Escherichia coli [11] = assay: Antibacterial activity against ESBL-producing multidrug-resistant Escherichia coli clinical isolate 14-1 assessed as inhibition of bacterial growth incubated for 18 to 20 hrs by two fold serial dilution assay; type: functional; details: time 18-20 hrs
Klebsiella pneumoniae [12] = assay: Antibacterial activity against KPC-2 producing multidrug-resistant Klebsiella pneumoniae clinical isolate 15-5 assessed as inhibition of bacterial growth incubated for 18 to 20 hrs by two fold serial dilution assay; type: functional; details: time 18-20 hrs
Acinetobacter baumannii [13] = assay: Antibacterial activity against OXA-23 producing multidrug-resistant Acinetobacter baumannii clinical isolate 17-8 assessed as inhibition of bacterial growth incubated for 18 to 20 hrs by two fold serial dilution assay; type: functional; details: time 18-20 hrs
Klebsiella pneumoniae [14] = assay: Antibacterial activity against KPC-2 producing multidrug-resistant Klebsiella pneumoniae clinical isolate 15-3 assessed as inhibition of bacterial growth incubated for 18 to 20 hrs by two fold serial dilution assay; type: functional; details: time 18-20 hrs
Pseudomonas aeruginosa [15] = assay: Antibacterial activity against IMP-4 producing multidrug-resistant Pseudomonas aeruginosa clinical isolate 19-17 assessed as inhibition of bacterial growth incubated for 18 to 20 hrs by two fold serial dilution assay; type: functional; details: time 18-20 hrs
Pseudomonas aeruginosa [16] = assay: Antibacterial activity against IMP-4 producing multidrug-resistant Pseudomonas aeruginosa clinical isolate 19-5 assessed as inhibition of bacterial growth incubated for 18 to 20 hrs by two fold serial dilution assay; type: functional; details: time 18-20 hrs
Acinetobacter baumannii [17] = assay: Antibacterial activity against OXA-23 producing multidrug-resistant Acinetobacter baumannii clinical isolate 17-7 assessed as inhibition of bacterial growth incubated for 18 to 20 hrs by two fold serial dilution assay; type: functional; details: time 18-20 hrs
Pseudomonas aeruginosa [18] = assay: Antibacterial activity against IMP-4 producing multidrug-resistant Pseudomonas aeruginosa clinical isolate 17-1 assessed as inhibition of bacterial growth incubated for 18 to 20 hrs by two fold serial dilution assay; type: functional; details: time 18-20 hrs
Acinetobacter baumannii [19] = assay: Antibacterial activity against OXA-23 producing multidrug-resistant Acinetobacter baumannii clinical isolate 17-2 assessed as inhibition of bacterial growth incubated for 18 to 20 hrs by two fold serial dilution assay; type: functional; details: time 18-20 hrs
Acinetobacter baumannii [20] = assay: Antibacterial activity against OXA-23 producing multidrug-resistant Acinetobacter baumannii clinical isolate 15-3 assessed as inhibition of bacterial growth incubated for 18 to 20 hrs by two fold serial dilution assay; type: functional; details: time 18-20 hrs
Acinetobacter baumannii [21] = assay: Antibacterial activity against OXA-23 producing multidrug-resistant Acinetobacter baumannii clinical isolate 15-5 assessed as inhibition of bacterial growth incubated for 18 to 20 hrs by two fold serial dilution assay; type: functional; details: time 18-20 hrs
[22] = Plasma protein binding in mouse incubated for 35 mins by LC-MS/MS analysis; type: ADME, cell-free; details: read-out: PPB (converted)
Acinetobacter baumannii [23] = assay: Antibacterial activity against OXA-23 producing multidrug-resistant Acinetobacter baumannii clinical isolate 15-4 assessed as inhibition of bacterial growth incubated for 18 to 20 hrs by two fold serial dilution assay; type: functional; details: time 18-20 hrs
Acinetobacter baumannii [24] = assay: Antibacterial activity against OXA-23 producing multidrug-resistant Acinetobacter baumannii clinical isolate 15-1 assessed as inhibition of bacterial growth incubated for 18 to 20 hrs by two fold serial dilution assay; type: functional; details: time 18-20 hrs
Acinetobacter baumannii [25] = assay: Antibacterial activity against OXA-23 producing multidrug-resistant Acinetobacter baumannii clinical isolate 15-2 assessed as inhibition of bacterial growth incubated for 18 to 20 hrs by two fold serial dilution assay; type: functional; details: time 18-20 hrs
[26] = Half life in ICR mouse at 20 mg/kg,iv administration measured upto 6 hrs by LC-MS/MS analysis; type: ADME, organism-based; details: in vivo
[27] = AUC (0 to infinity) in ICR mouse at 20 mg/kg,iv administration measured upto 6 hrs by LC-MS/MS analysis; type: ADME, organism-based; details: in vivo
[28] = Clearance in ICR mouse at 20 mg/kg,iv administration measured upto 6 hrs by LC-MS/MS analysis; type: ADME, organism-based; details: in vivo
[29] = Volume of distribution at steady state in ICR mouse at 20 mg/kg,iv administration measured upto 6 hrs by LC-MS/MS analysis; type: ADME, organism-based; details: in vivo, read-out: Vdss
[30] = MRT in ICR mouse at 20 mg/kg,iv administration measured upto 6 hrs by LC-MS/MS analysis; type: ADME, organism-based; details: in vivo

| SMILES | MIC (Pseudomonas aeruginosa [1]) [µg/mL] | MIC (Klebsiella pneumoniae [2]) [µg/mL] | MIC (Escherichia coli [3]) [µg/mL] | MIC (Acinetobacter baumannii [4]) [µg/mL] | MIC (Klebsiella pneumoniae [5]) [µg/mL] | MIC (Pseudomonas aeruginosa [6]) [µg/mL] | MIC (Escherichia coli [7]) [µg/mL] | MIC (Escherichia coli [10]) [µg/mL] | MIC (Escherichia coli [11]) [µg/mL] | MIC (Klebsiella pneumoniae [12]) [µg/mL] | MIC (Klebsiella pneumoniae [14]) [µg/mL] | MIC (Pseudomonas aeruginosa [15]) [µg/mL] | MIC (Pseudomonas aeruginosa [16]) [µg/mL] | MIC (Pseudomonas aeruginosa [18]) [µg/mL] | MIC (Acinetobacter baumannii [19]) [µg/mL] | MIC (Acinetobacter baumannii [20]) [µg/mL] | MIC (Acinetobacter baumannii [21]) [µg/mL] | MIC (Acinetobacter baumannii [23]) [µg/mL] | MIC (Acinetobacter baumannii [24]) [µg/mL] | MIC (Acinetobacter baumannii [25]) [µg/mL] | also measured |
| --- | --- | --- | --- | --- | --- | --- | --- | --- | --- | --- | --- | --- | --- | --- | --- | --- | --- | --- | --- | --- | --- |
| C[C@](O/N=C(\C(=O)N[C@@H]1C(=O)N2C(C(=O)O)=C(CSCCNC(=O)c3ccc(O)c(O)c3Cl)CS[C@H]12)c1nc(N)sc1Cl)(C(=O)O)C(F)(F)F.O=C(O)C(F)(F)F | 0.125 | 0.5 | ≤ 0.03 | 0.5 | 0.25 | 1 | 0.5 | 0.125 | 0.06 | 0.125 | 0.5 | 0.06 | 0.25 | 8 | 0.06 | – | – | – | – | – | MIC (Acinetobacter baumannii [8]): 0.125 µg/mL; MIC (Acinetobacter baumannii [9]): 0.5 µg/mL; MIC (Acinetobacter baumannii [13]): 0.125 µg/mL; MIC (Acinetobacter baumannii [17]): 0.5 µg/mL |
| CC(C)[C@H](O/N=C(\C(=O)N[C@@H]1C(=O)N2C(C(=O)O)=C(CSCCNC(=O)c3ccc(O)c(O)c3Cl)CS[C@H]12)c1csc(N)n1)C(=O)O.O=C(O)C(F)(F)F | 0.125 | 1 | 0.125 | 4 | 1 | 1 | 1 | 0.06 | 0.125 | 4 | 4 | 0.25 | 0.5 | 8 | 4 | – | – | – | – | – | MIC (Acinetobacter baumannii [8]): 4 µg/mL; MIC (Acinetobacter baumannii [9]): 16 µg/mL; MIC (Acinetobacter baumannii [13]): 4 µg/mL; MIC (Acinetobacter baumannii [17]): 8 µg/mL |
| Nc1nc(/C(=N/OC(C(=O)O)C2CCC(C(F)(F)F)CC2)C(=O)N[C@@H]2C(=O)N3C(C(=O)O)=C(CSCCNC(=O)c4ccc(O)c(O)c4Cl)CS[C@H]23)cs1.O=C(O)C(F)(F)F (stereo not given in full) | 0.125 | 1 | 0.25 | – | 1 | – | 1 | 0.06 | 0.25 | 1 | 1 | 0.5 | – | 1 | – | 4 | 2 | 8 | 4 | 2 | fraction unbound at 35 min [22]: 0.04 |
| Nc1nc(/C(=N/OC(C(=O)O)C2CCCCC2)C(=O)N[C@@H]2C(=O)N3C(C(=O)O)=C(CSCCNC(=O)c4ccc(O)c(O)c4Cl)CS[C@H]23)cs1.O=C(O)C(F)(F)F (stereo not given in full) | 1 | 2 | 0.125 | – | 4 | – | 1 | 0.125 | 0.125 | 1 | 2 | 0.5 | – | 4 | – | 8 | 4 | 8 | 8 | 4 | half-life [26]: 0.7 h; AUC(0-inf) [27]: 3440 ng·h/mL; clearance [28]: 90.1 mL/min/kg; Vd [29]: 1.73 L/kg; MRT [30]: 0.3 h |
| CC(C)(C)C1CCC(C(O/N=C(\C(=O)N[C@@H]2C(=O)N3C(C(=O)O)=C(CSCCNC(=O)c4ccc(O)c(O)c4Cl)CS[C@H]23)c2csc(N)n2)C(=O)O)CC1.O=C(O)C(F)(F)F (stereo not given in full) | 4 | 1 | 0.25 | – | 1 | – | 0.5 | 0.06 | 0.125 | 1 | 2 | 0.5 | – | 4 | – | 8 | 8 | 8 | 8 | 8 | half-life [26]: 4.99 h; AUC(0-inf) [27]: 6670 ng·h/mL; clearance [28]: 58 mL/min/kg; Vd [29]: 7.23 L/kg; MRT [30]: 1.72 h |
| Nc1nc(/C(=N/OC(C(=O)O)C2CCC(F)(F)CC2)C(=O)N[C@@H]2C(=O)N3C(C(=O)O)=C(CSCCNC(=O)c4ccc(O)c(O)c4Cl)CS[C@H]23)c(Cl)s1.O=C(O)C(F)(F)F (stereo not given in full) | 0.5 | 1 | 0.5 | 2 | 0.5 | 8 | 0.25 | 0.125 | 0.125 | 1 | 0.5 | 0.125 | 0.5 | – | 0.25 | 4 | 4 | 8 | 4 | 1 | half-life [26]: 0.34 h; AUC(0-inf) [27]: 4740 ng·h/mL; clearance [28]: 54.1 mL/min/kg; fraction unbound at 35 min [22]: 0.031; Vd [29]: 0.649 L/kg; MRT [30]: 0.18 h |
| CC(C)[C@@H](O/N=C(\C(=O)N[C@@H]1C(=O)N2C(C(=O)O)=C(CSCCNC(=O)c3ccc(O)c(O)c3Cl)CS[C@H]12)c1csc(N)n1)C(=O)O.O=C(O)C(F)(F)F | 0.06 | 0.25 | 0.125 | 0.5 | 0.25 | 2 | 1 | 0.5 | 0.125 | 0.25 | 2 | 0.25 | 2 | 32 | 1 | – | – | – | – | – | MIC (Acinetobacter baumannii [8]): 2 µg/mL; MIC (Acinetobacter baumannii [9]): 2 µg/mL; MIC (Acinetobacter baumannii [13]): 1 µg/mL; MIC (Acinetobacter baumannii [17]): 4 µg/mL |
| Nc1nc(/C(=N/OC(C(=O)O)C2CCC(F)(F)CC2)C(=O)N[C@@H]2C(=O)N3C(C(=O)O)=C(CSCCNC(=O)c4ccc(O)c(O)c4Cl)CS[C@H]23)c(Br)s1.O=C(O)C(F)(F)F (stereo not given in full) | 0.06 | 1 | 0.06 | 4 | 0.5 | 8 | 0.125 | 0.06 | 0.125 | 0.25 | 0.5 | 0.125 | 0.25 | – | 0.125 | 1 | 4 | 4 | 2 | 0.5 | half-life [26]: 3.33 h; AUC(0-inf) [27]: 3910 ng·h/mL; clearance [28]: 92.9 mL/min/kg; Vd [29]: 9.48 L/kg; MRT [30]: 1.61 h |
